Assay results taken from patent US7223424B2, “Compositions and methods for prostate and kidney health and disorders, an herbal preparation” (Integrated Chinese Medicine Holdings, Ltd., priority 2001, dated 2007).

Tested on: person with enlarged prostate
Assay: Case report: person with enlarged prostate and frequent urination
Type: in vivo, human
Conditions: prescribed for enlarged prostate
From the text: Person diagnosed with having an enlarged prostate suffered from frequent-urination problems including increased daily frequency and reduced volume. They had the urge to urinate every two hours and the amount was only a few drops. Their symptoms were attributed to old age. […] They are able to urinate what they consider a normal amount of urine in a steady stream as opposed to the dribbling they experienced prior to taking the 9-herb composition. […] Because they are sleeping better, they have more energy throughout the day.

CC(C)(C)NC(=O)[C@H]1CC[C@H]2[C@@H]3CC[C@H]4NC(=O)C=C[C@]4(C)[C@H]3CC[C@]12C [PROSCAR]
urination problem: did not alleviate the urination problem
